Measurements reported in patent US20240201191A1, “CITRULLINATED PROTEINS AS BIOMARKERS AND THERAPY TARGETS FOR CANCER” (BOARD OF REGENTS, THE UNIVERSITY OF TEXAS SYSTEM, priority 2022, published 2024).
Square brackets hold non-standard residues; d marks the D form. Ends that are not written are not given here. Cit = NC(=O)NCCC[C@H](N)C(=O)O

Legend:
[1] = test system: B cell-mediated IgG secretion; test: ELISpot IgG assay; assay type: cell-based; details: compared to media
Description: (§1) Using ELISpot assays, we tested the unmodified and citrullinated forms of three pairs of synthesized ENO1 peptides predicted as having high MHC-II binding affinity and assessed B cell-mediated IgG and T cell-mediated IFNγ secretion (Table 9).

[2] = test system: T cell-mediated IFNγ secretion; test: ELISpot IFNγ assay; assay type: cell-based; details: compared to media
Description: as §1

Substance | B cell-mediated IgG response (ELISpot) [1] | T cell-mediated IFNγ secretion (ELISpot) [2] | T cell-mediated IFNγ secretion (ELISpot) ([2]; listed as citrullinated peptide 1)
AMQEFMILPVGASSFR*EAMR*GA (AMQEFMILPVGASSF[Cit]EAM[Cit]GA) [citrullinated peptide-2, citrullinated synthesized ENO1 peptide, R16(Cit.), R20(Cit.)] | elicited a potent IgG response | – | –
R*AAVPSGASTGIYEALELR*DNDKTR* (RAAVPSGASTGIYEALELRDNDKTR; citrullinated arginines; MOD_RES (1)..(1) Citrullinated Arginine; MOD_RES (19)..(19) Citrullinated Arginine; MOD_RES (25)..(25) Citrullinated Arginine) [citrullinated peptide-1, citrullinated synthesized ENO1 peptide, position 32-56] | elicited a potent IgG response | modest increase in IFNg secretion | higher amount of INFγ response
